Experiments:
Format in all cases: in vivo
biting midges = assay: Spatial inhibition of biting midges, outdoor trap catch; details: control trap = 100% catch, lower = more inhibition
Experimental: Two grams of test compound is absorbed onto pieces of absorbent material. These pieces of absorbent material (fragrance release material from Rhopore Inc.) containing absorbed test compound are then placed in a stream of CO2 and r-octenol being released from a biting midges biting midge trap designed to attract biting midges. The test are rotated over a period of 2-5 days in such a manner that both control (trap without test compound) and test compound are tested an equal number of times in each trap employed. The number of biting midges caught in the traps with test compounds is compared to the number of biting midges caught in the trap with no test compound material present. […] Thus, a lowered percentage is indicative of the increasing ability of the test compounds to inhibit the ability of the biting midges sense the target. In Table 6, weight percent (wt %) refers to the weight of the deterring/repelling/inhibiting compound, or combination of compounds, in the composition used in the tests. In the “Percent Caught Relative to Control” column in Table 6, a lower percentage is indicative of the increasing ability of the test compounds to inhibit the ability of the biting midges to sense the target. The weight ratio of the compounds in the combination of compounds is given in parentheses in the “Compound(s)” column of Table 6.

[1] = tested on: female biting midges (Culicoides impunctatus); assay: Biting midges feeding test (Plexiglas module, treated membrane); details: control = 1.00, lower = more repellent
Experimental: The following tests are employed to illustrate the efficacy of the compounds of this disclosure to effectively act as biting midge deterrents, repellents or as spatial inhibitors for biting midges. […] Biting midges are tested in a two-piece Plexiglas module designed to assess their response to feeding deterrents. […] Water (40° C.) flows through the central cavity of the platform at a rate of 215 ml/min. The top piece of the module consists of six 4.5×4.0×5.0 cm chambers, the floors of which are fitted with a sliding door positioned over a circular opening 3.5 cm in diameter. Biting midges are introduced through an aperture 1 cm in diameter on the front wall of the chambers. For each test, five female biting midges (Culicoides impunctatus) are aspirated into each of five chambers of the top module piece and the apertures are plugged with corks wrapped in plastic film. […] To each well, 77.5 μl of green dye (McCormick Food, Hunt Valley, Md.) are added so that those biting midges imbibing the sugar solution can be identified when crushed at the end of the tests. Each membrane receives 50 μl of acetone or experimental compound solution, applied to 9.6 cm^2 circular area on 0.1 mm-thick membranes made of nylon mesh in a silicone matrix. The membranes are then placed over each well in contact with the sugar solution. The circular openings on the floor of each chamber of the top piece of the module are aligned with each membrane-covered well of the bottom piece. The sliding floors of the chambers are then opened allowing biting midges access to the membranes. The number of biting midges landing on the membranes, and those flying within the apparatus, are recorded each minute for five minutes. After five minutes, any biting midges remaining on the membranes are removed with a metal wire, and the door of the floor of each chamber is closed. The top piece of the module is then placed into a freezer for 20 minutes. In the test designed to assess feeding, biting midges are removed from the frozen module, crushed on white paper towels, and examined for the presence of green dye to indicate that feeding had occurred. The proportions of biting midges feeding per trial are analyzed using a standard generalized linear model with a logit link. Landing and flying scores are repeated measures; five readings are obtained for groups of five biting midges. Thus, to maintain independence among the data, the five readings are summed, and then the sums divided by 25 (the maximum score in each category) to create proportions of biting midges landing and flying. The proportions are then transferred using the standard variance stabilizing transformation for proportions (sin^−1 √y, where y is the proportion), and analyzed using ANOVA (Analysis of Variables). In Table 4, weight percent (wt %) refers to the weight of the deterring/repelling/inhibiting compound, or combination of compounds, in the composition used in the tests. […] The weight ratio of the compounds in the combination of compounds is given in parentheses in the “Compound(s)” column of Table 4.

[2] = tested on: female biting midges (Culicoides impunctatus); assay: Biting midges flying test (Plexiglas module); details: control = 1, higher = more inhibitor activity
Experimental: The following tests are employed to illustrate the efficacy of the compounds of this disclosure to effectively act as biting midge deterrents, repellents or as spatial inhibitors for biting midges. […] Biting midges are tested in a two-piece Plexiglas module designed to assess their response to feeding deterrents. […] Water (40° C.) flows through the central cavity of the platform at a rate of 215 ml/min. The top piece of the module consists of six 4.5×4.0×5.0 cm chambers, the floors of which are fitted with a sliding door positioned over a circular opening 3.5 cm in diameter. Biting midges are introduced through an aperture 1 cm in diameter on the front wall of the chambers. For each test, five female biting midges (Culicoides impunctatus) are aspirated into each of five chambers of the top module piece and the apertures are plugged with corks wrapped in plastic film. […] To each well, 77.5 μl of green dye (McCormick Food, Hunt Valley, Md.) are added so that those biting midges imbibing the sugar solution can be identified when crushed at the end of the tests. Each membrane receives 50 μl of acetone or experimental compound solution, applied to 9.6 cm^2 circular area on 0.1 mm-thick membranes made of nylon mesh in a silicone matrix. The membranes are then placed over each well in contact with the sugar solution. The circular openings on the floor of each chamber of the top piece of the module are aligned with each membrane-covered well of the bottom piece. The sliding floors of the chambers are then opened allowing biting midges access to the membranes. The number of biting midges landing on the membranes, and those flying within the apparatus, are recorded each minute for five minutes. After five minutes, any biting midges remaining on the membranes are removed with a metal wire, and the door of the floor of each chamber is closed. The top piece of the module is then placed into a freezer for 20 minutes. In the test designed to assess feeding, biting midges are removed from the frozen module, crushed on white paper towels, and examined for the presence of green dye to indicate that feeding had occurred. The proportions of biting midges feeding per trial are analyzed using a standard generalized linear model with a logit link. Landing and flying scores are repeated measures; five readings are obtained for groups of five biting midges. Thus, to maintain independence among the data, the five readings are summed, and then the sums divided by 25 (the maximum score in each category) to create proportions of biting midges landing and flying. The proportions are then transferred using the standard variance stabilizing transformation for proportions (sin^−1 √y, where y is the proportion), and analyzed using ANOVA (Analysis of Variables). In Table 5, weight percent (wt %) refers to the weight of the deterring/repelling/inhibiting compound, or combination of compounds, in the composition used in the tests. […] The weight ratio of the compounds in the combination of compounds is given in parentheses in the “Compound(s)” column of Table 5.

[3] = 77.5 wt % compound(s) in composition
[4] = 87.5 wt % compound(s) in composition
[5] = 92.5 wt % compound(s) in composition
[6] = 80 wt % compound(s) in composition
[7] = 95 wt % compound(s) in composition
[8] = 82.5 wt % compound(s) in composition
[9] = 85 wt % compound(s) in composition
[10] = 90 wt % compound(s) in composition

C=C(C)[C@@H]1CC=C(C)[C@@H](O)C1 (relative stereo) [trans-Carveol]
Percent Caught Relative To Control (biting midges; [3]): 22% | Feeding Relative To Control [1, 3]: 0.63 | Flying Relative To Control [2, 3]: 1.5

(+) Limonene oxide
Percent Caught Relative To Control (biting midges; [4]): 19% | Feeding Relative To Control [1, 4]: 0.77 | Flying Relative To Control [2, 4]: 0.95

CC(C)=CCCC(C)CC=O (stereo not drawn) [Citronellal]
Percent Caught Relative To Control (biting midges; [5]): 12% | Feeding Relative To Control [1, 5]: 0.64 | Flying Relative To Control [2, 5]: 1.95

CC(=O)OCCC(C)CCC=C(C)C (stereo not drawn) [Citronellyl acetate]
Percent Caught Relative To Control (biting midges; [6]): 25% | Feeding Relative To Control [1, 6]: 0.67 | Flying Relative To Control [2, 6]: 1.25

CC(C)[C@@H]1CC[C@@H](C)C(=O)C1 [Tetrahydrocarvone]
Percent Caught Relative To Control (biting midges; [7]): 25% | Feeding Relative To Control [1, 7]: 0.72 | Flying Relative To Control [2, 7]: 1.7

CC(C)=CCCC(C)=CC=O [Citral]
Percent Caught Relative To Control (biting midges; [8]): 12% | Feeding Relative To Control [1, 8]: 0.60 | Flying Relative To Control [2, 8]: 2.15

Cc1ccc(C(C)(C)O)cc1
Percent Caught Relative To Control (biting midges; [6]): 25% | Feeding Relative To Control [1, 6]: 0.73 | Flying Relative To Control [2, 6]: 1.2

C=C(C)[C@@H]1CC=C(C)[C@H](O)C1 (relative stereo) [cis-Carveol]
Percent Caught Relative To Control (biting midges; [9]): 24% | Feeding Relative To Control [1, 9]: 0.67 | Flying Relative To Control [2, 9]: 1.25

CC(C)=CCCC(C)CCO (stereo not drawn) [Citronellol]
Percent Caught Relative To Control (biting midges; [4]): 12% | Feeding Relative To Control [1, 4]: 0.64 | Flying Relative To Control [2, 4]: 1.5

CC1=CCC(O)(C(C)C)CC1 (stereo not drawn) [Terpinen-4-ol]
Percent Caught Relative To Control (biting midges; [10]): 21% | Feeding Relative To Control [1, 10]: 0.74 | Flying Relative To Control [2, 10]: 1.6

C=C(C)C1CCC2(C)OC2C1 (single isomer, unassigned; (-)) [(−) Limonene oxide]
Percent Caught Relative To Control (biting midges; [5]): 16% | Feeding Relative To Control [1, 5]: 0.75 | Flying Relative To Control [2, 5]: 1.15

CC(=O)OC/C=C(\C)CCC=C(C)C [Geranyl acetate]
Percent Caught Relative To Control (biting midges; [9]): 29% | Feeding Relative To Control [1, 9]: 0.64 | Flying Relative To Control [2, 9]: 1.5

CC(=O)OC/C=C(/C)CCC=C(C)C [Neryl acetate]
Percent Caught Relative To Control (biting midges; [3]): 20% | Feeding Relative To Control [1, 3]: 0.72 | Flying Relative To Control [2, 3]: 2.5

C=C[C@@](C)(O)CCC=C(C)C [d-Linalool, reference compound]
Percent Caught Relative To Control (biting midges; [6]): 6% | Feeding Relative To Control [1, 6]: 0.31 | Flying Relative To Control [2, 6]: 1.35

l-Carvone
Percent Caught Relative To Control (biting midges; [8]): 12% | Feeding Relative To Control [1, 8]: 0.62 | Flying Relative To Control [2, 8]: 1.65

CC1=CCC(C(C)(C)O)CC1 (stereo not drawn) [α-terpineol]
Percent Caught Relative To Control (biting midges; [10]): 16% | Feeding Relative To Control [1, 10]: 0.80 | Flying Relative To Control [2, 10]: 1.5

C=C(C)[C@H]1CC=C(C)C(=O)C1 [d-Carvone]
Percent Caught Relative To Control (biting midges; [3]): 13% | Feeding Relative To Control [1, 3]: 0.65 | Flying Relative To Control [2, 3]: 1.55

C=CC(C)(CCC=C(C)C)OC(C)=O (stereo not drawn) [Linaloyl acetate]
Percent Caught Relative To Control (biting midges; [7]): 16% | Feeding Relative To Control [1, 7]: 0.72 | Flying Relative To Control [2, 7]: 1.2

From patent US20210029993A1, “SPATIAL INHIBITORS, DETERRENTS AND REPELLENTS FOR MOSQUITOES AND MIDGES” (BEDOUKIAN RESEARCH, INC., priority 2005, published 2021)
